Measurements: US20040180915A1, “Methadone-containing compositions for parenteral administration and method of use thereof” (priority 2003, published 2004)

How the values were obtained:
microorganisms = conditions: cited from earlier work
[1] = tested on: gram-positive and gram-negative bacteria; conditions: cited from earlier work
molds and yeasts = conditions: relative to activity against bacteria; cited from earlier work
[2] = cited from earlier work
[3] = in vivo; cited from earlier work
[4] = ECG/EKG comparison of QTc intervals in patients on and off treatment
Source text: Applicants' also performed a comparison study involving hundreds of EKG's performed on patients treated with IV methadone versus the EKG's of patients not being treated with the IV methadone.

[5] = oral vs intramuscular; cited from earlier work
[6] = cited from earlier work; remark: listed apart in the source

## O=C(O)c1ccccc1 [Benzoic acid]
microorganisms
  pH range (optimal pH range for activity): 2-5
[1]
  activity against growth of gram-positive and gram-negative bacteria: strongly active
Molds and yeasts
  activity against growth of molds and yeasts: slightly weaker

## CCCCOC(=O)c1ccc(O)cc1 [Butylparaben]
microorganisms
  pH range (optimal pH range for activity): 3.0-9.5
[2]
  water solubility: about 0.2%

## COC(=O)c1ccc(O)cc1 [Methylparaben]
microorganisms
  pH range (optimal pH range for activity): 3.0-9.5
[1]
  activity against growth of gram-positive and gram-negative bacteria: strongly active
Molds and yeasts
  activity against growth of molds and yeasts: slightly weaker

## CCCOC(=O)c1ccc(O)cc1 [Propylparaben]
microorganisms
  pH range (optimal pH range for activity): 3.0-9.5

## C/C=C/C=C/C(=O)O [Sorbic acid]
microorganisms
  pH range (optimal pH range for activity): <6.5
[1]
  activity against growth of gram-positive and gram-negative bacteria: strongly active
Molds and yeasts
  activity against growth of molds and yeasts: slightly weaker

## CC(C)(O)C(Cl)(Cl)Cl [chlorobutanol]
[3]
  half-life: over 10 days

## CCC(=O)C(CC(C)N(C)C)(c1ccccc1)c1ccccc1 (stereo not drawn) [methadone]
[4]; at least one patient
  QTc prolongation after switch from IV route to oral route: reversed
[4]; orally ingested methadone in a formulation without chlorobutanol
  prolongation in QTc interval times: did not show a similar prolongation
[5]
  total analgesic effects, oral relative to same dose intramuscularly: about 50%
[6]; after subcutaneous injection
  time to appreciable concentrations in plasma: ≤ 10 min
[6]; oral
  time to detection in blood plasma after ingestion: ≤ 30 min

## Benzalkonium chloride
microorganisms
  pH range (optimal pH range for activity): 4-10
[1]
  activity against growth of gram-positive and gram-negative bacteria: strongly active
Molds and yeasts
  activity against growth of molds and yeasts: slightly weaker

## Cetrimide
microorganisms
  pH range (optimal pH range for activity): 4-10
[1]
  activity against growth of gram-positive and gram-negative bacteria: strongly active
Molds and yeasts
  activity against growth of molds and yeasts: slightly weaker
